How the values were obtained:
Experiment in all cases: relative viability (nuclei count vs DMSO), 5 days (fraction); higher = more cells survive
[1] = compound: Cc1cc([C@@H](C)Nc2ccccc2C(=O)O)c2nc(N3CCOCC3)cc(=O)n2c1 [AZD6482] + CCNC(=O)c1noc(-c2cc(C(C)C)c(O)cc2O)c1-c1ccc(CN2CCOCC2)cc1 [Luminespib] (partner 0.01 µM)
How it was run: (§1)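 After 5 days of treatment, lung cancer cells in 1536-well plates were fixed and stained in a single step (final 0.05% Triton X-100, 1% formaldehyde, 1 ug/ml Hoechst) and their nuclei counted on 4× images. Treatment had been applied by pin tool the day after seeding as one drug alone or as a fixed anchor-drug dose with five library-drug doses (not always all listed) in √10 steps. Relative viability is the nuclei count of treated wells divided by that of vehicle wells, and values are medians of duplicate plates.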

[2] = compound: COc1cc2nc(N3CCCN(C)CC3)nc(NC3CCN(Cc4ccccc4)CC3)c2cc1OC + CCNC(=O)c1noc(-c2cc(C(C)C)c(O)cc2O)c1-c1ccc(CN2CCOCC2)cc1 [Luminespib] (partner 0.01 µM)
How it was run: as §1

[3] = compound: COc1cc2nc(N3CCCN(C)CC3)nc(NC3CCN(Cc4ccccc4)CC3)c2cc1OC + N=C(N)NC(=N)NCCc1ccccc1 [Phenformin] (partner 250 µM)
How it was run: as §1

[4] = compound: Cc1cc([C@@H](C)Nc2ccccc2C(=O)O)c2nc(N3CCOCC3)cc(=O)n2c1 [AZD6482] + N=C(N)NC(=N)NCCc1ccccc1 [Phenformin] (partner 250 µM)
How it was run: as §1

Cell Line: UMC-11
- relative viability ([1]; first compound 0.08 µM): 0.986
- relative viability ([1]; first compound 0.253 µM): 0.994
- relative viability ([1]; first compound 0.8 µM): 0.929
- relative viability ([1]; first compound 2.53 µM): 0.869
- relative viability ([1]; first compound 8 µM): 1.26
- relative viability ([2]; first compound 0.2 µM): 1.06
- relative viability ([2]; first compound 0.6325 µM): 1.08
- relative viability ([2]; first compound 2 µM): 1.05
- relative viability ([2]; first compound 6.325 µM): 0.816
- relative viability ([3]; first compound 0.2 µM): 0.322
- relative viability ([3]; first compound 0.6325 µM): 0.346
- relative viability ([3]; first compound 2 µM): 0.352
- relative viability ([3]; first compound 6.325 µM): 0.243
- relative viability ([4]; first compound 0.08 µM): 0.309
- relative viability ([4]; first compound 0.253 µM): 0.292
- relative viability ([4]; first compound 0.8 µM): 0.324
- relative viability ([4]; first compound 2.53 µM): 0.293
- relative viability ([4]; first compound 8 µM): 0.255

From the supplement of paper PMC10307832
